# Experiments:
# [1] = Cytotoxic activity against human SGC7901 cells; type: functional, cell-based, SGC-7901
# SW1990 = test: Cytotoxic activity against human SW1990 cells; type: functional, cell-based
# NCI-H460 = test: Cytotoxic activity against human NCI-H460 cells; type: functional, cell-based
# MCF7 = test: Cytotoxic activity against human MCF7 cells; type: functional, cell-based
# HeLa = test: Cytotoxic activity against human HeLa cells; type: functional, cell-based
# Huh-7 = test: Cytotoxic activity against human HuH7 cells; type: functional, cell-based
# DU-145 = test: Cytotoxic activity against human DU145 cells; type: functional, cell-based
# [2] = Homo sapiens, SGC-7901, read-out: IC50
# [3] = Homo sapiens, SW1990, read-out: IC50
# [4] = Homo sapiens, NCI-H460, read-out: IC50
# [5] = Homo sapiens, MCF7, read-out: IC50
# [6] = Homo sapiens, HeLa, read-out: IC50
# [7] = Homo sapiens, Huh-7, read-out: IC50
# [8] = Homo sapiens, DU-145, read-out: IC50
SMILES,"IC50 [1, 2]",IC50 (SW1990; [3]),IC50 (NCI-H460; [4]),IC50 (MCF7; [5]),IC50 (HeLa; [6]),IC50 (Huh-7; [7]),IC50 (DU-145; [8]),also measured
COc1cccc2c1C(=O)c1c(O)c3c(c(O)c1C2=O)C[C@@](O)(C(=O)CO)C[C@@H]3O[C@H]1C[C@H](N)[C@H](O)[C@H](C)O1 [DOXORUBICIN],0.011 µM,–,–,–,–,–,–,–
CC1CCCCCC(=O)c2c(O)cc(O)cc2CC(=O)O1 (centres undefined) [CURVULARIN],–,–,–,–,–,–,–,IC50 (SW1990; sw1990): Not Active; IC50 (NCI-H460; nci-h460): Not Active; IC50 ([1]; sgc-7901): Not Active; IC50 (MCF7; mcf7): Not Active; IC50 (HeLa; hela): Not Active; IC50 (Huh-7; huh-7): Not Active; IC50 (DU-145; du-145): Not Active
CC(=O)OCCOC(=O)[C@@H](CS[C@H]1CCC[C@H](C)OC(=O)Cc2cc(O)cc(O)c2C(=O)C1)OC(C)=O,6.8 µM,11 µM,4.6 µM,4.7 µM,8 µM,5.5 µM,7 µM,–
O=c1[nH]cc(F)c(=O)[nH]1 [FLUOROURACIL],–,–,–,–,–,–,3.4 µM,–
Nc1ccn([C@@H]2O[C@H](CO)[C@@H](O)C2(F)F)c(=O)n1 [GEMCITABINE],–,1.6 µM,–,–,–,–,–,–
C[C@H]1CCC/C=C/C(=O)c2c(O)cc(O)cc2CC(=O)O1 [DEHYDROCURVULARIN],6 µM,10 µM,5 µM,4 µM,6 µM,5 µM,6 µM,–
COC(=O)[C@H](O)CS[C@H]1CCC[C@H](C)OC(=O)Cc2cc(O)cc(O)c2C(=O)C1,5.5 µM,10 µM,3.8 µM,4.4 µM,6 µM,3.9 µM,6 µM,–
CC(=O)O[C@H]1C(=O)[C@@]2(C)[C@H]([C@H](OC(=O)c3ccccc3)[C@]3(O)C[C@H](OC(=O)[C@H](O)[C@@H](NC(=O)c4ccccc4)c4ccccc4)C(C)=C1C3(C)C)[C@]1(OC(C)=O)CO[C@@H]1C[C@@H]2O [PACLITAXEL],–,–,–,–,12 µM,–,–,–
C[C@H]1CCC[C@H](SC[C@@H](O)C(=O)O)CC(=O)c2c(O)cc(O)cc2CC(=O)O1,8.5 µM,11 µM,7 µM,4.4 µM,6 µM,5.1 µM,6 µM,–
